Experimental data reported in patent US12459967B2, “Modulators of 5′-nucleotidase, ecto and the use thereof” (Arcus Biosciences, Inc., priority 2016, dated 2025).

Biological target: T1, human CD73 (Homo sapiens, UniProt P21589)
T1 construct: host or cells: CHO-K1 (suspension pool CHO-CD73)
T1 sequence (P21589 27-549): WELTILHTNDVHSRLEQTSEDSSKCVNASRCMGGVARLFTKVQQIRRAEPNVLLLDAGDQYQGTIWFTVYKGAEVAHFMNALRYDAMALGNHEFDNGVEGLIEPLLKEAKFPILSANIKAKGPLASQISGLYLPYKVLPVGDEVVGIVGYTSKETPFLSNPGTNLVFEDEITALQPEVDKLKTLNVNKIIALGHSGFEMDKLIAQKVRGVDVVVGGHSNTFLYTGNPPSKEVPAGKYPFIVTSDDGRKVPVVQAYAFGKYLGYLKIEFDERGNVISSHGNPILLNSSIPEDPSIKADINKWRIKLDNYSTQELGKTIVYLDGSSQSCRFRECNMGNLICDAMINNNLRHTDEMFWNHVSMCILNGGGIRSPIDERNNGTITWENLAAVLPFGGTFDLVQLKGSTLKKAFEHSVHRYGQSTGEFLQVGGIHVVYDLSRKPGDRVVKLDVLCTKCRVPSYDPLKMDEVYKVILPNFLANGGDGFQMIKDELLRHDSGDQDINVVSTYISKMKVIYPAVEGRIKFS
Experiment: Inhibition of ecto-5′-nucleotidase (CD73) activity in CHO-CD73 cells, phosphate colorimetric readout
Assay type: cell-based
Settings: CHO-K1 cells stably transfected with human CD73, 2500 cells per well, 25 μM AMP substrate, 50 minutes incubation at 37° C.; read-out: Potency: CD73 IC50
Description: Inhibition of Ecto-5′-nucleotidase Activity. Compounds were evaluated to determine their ecto-5′-nucleotidase (CD73) inhibitory activity. Briefly, CHO-K1 cells stably transfected with human CD73 were generated by LakePharma (Belmont, CA) using molecular cloning of human CD73 (http://www.uniprot.org/uniprot/P21589) and mammalian transient expression vector (P21589.1). After antibiotic selection in CD OptiCHO cell media (Invitrogen, Catalog #12681-011) containing 5 μg/mL Puromycin and 200 μg/mL Hygromycin B, a suspension pool of CHO-CD73 cells was collected and frozen in 7.5% DMSO in cell media without antibiotics.
On the day of the experiment, one vial of CHO-CD73 cells was thawed and suspended in assay media which consisted of 20 mM HEPES, pH 7.4, 137 mM NaCl, 5.4 mM KCl, 1.3 mM CaCl2), 4.2 mM NaHCO3 and 0.1% glucose. To test the ability of compounds to inhibit CD73 enzymatic activity, 2 μL of 500 μM of compounds dissolved in DMSO (50×) were added to a 96-well polystyrene plate containing 58 μL of assay buffer. Next, 20 μL of CHO-CD73 cells in assay buffer were added to assay plate followed by 20 μL of 125 μM AMP (Adenosine 5′-monophosphate monohydrate) in assay buffer. Final assay conditions consisted of 2500 cells per well in 2% DMSO and 25 μM of AMP substrate. After 50 minutes of incubation (37° C. and 5% CO2) and centrifugation at 225×g for 5 mins, 80 μL of supernatant were transferred to a 96-well Spectra Plate (PerkinElmer, cat #6005640) which was pre-dispensed with 20 μL of PiColorLock Gold colorimetric assay reagents (Thermo, cat #30 300 30). The amount of inorganic phosphate was determined by reading the absorbance at 620 nm on an EnVision Multilabel Plate Reader (PerkinElmer). Enzymatic activity of CD73 was based on the amount of phosphate generated. Percentage of activity was calculated based on DMSO and no cells control wells. IC50 values of compounds were determined by four parameter non-linear regression fitting of percentage of activity in GraphPad Prism software.

Structure (SMILES)	IC50 [nM]
COP(=O)(O)CP(=O)(O)OC[C@H]1O[C@@H](n2cnc3c(N(C)C4CCCC4)nc(Cl)nc32)[C@@H](F)[C@@H]1O	100 to 1000
CN(c1nc(Cl)nc2c1ncn2[C@@H]1O[C@H](COP(=O)(CP(=O)(Oc2ccccc2)Oc2ccccc2)Oc2ccccc2)[C@@H](O)[C@H]1O)C1CCCC1 (stereo partly shown)	> 1000
O=P(O)(O)CP(=O)(O)OC[C@H]1O[C@@H](n2cnc3c(NCc4ccccc4)nc(CCc4ccccc4)nc32)[C@@H](F)[C@@H]1O	< 100
O=P(O)(O)CP(=O)(O)OC[C@H]1O[C@@H](n2cnc3c(NC4CCCC4)nc(Cl)cc32)[C@H](O)[C@@H]1O	< 100
C#Cc1nc(NCc2ccccc2)c2ncn([C@@H]3O[C@H](COP(=O)(O)CP(=O)(O)O)[C@@H](O)[C@@H]3F)c2n1	< 100
O=P(O)(O)CP(=O)(O)OC[C@H]1O[C@@H](n2cnc3c(NC4CCCC4)nc(C(O)C4CCOCC4)nc32)[C@@H](F)[C@@H]1O (stereo partly shown)	100 to 1000
O=P(O)(O)CP(=O)(O)OC[C@H]1O[C@@H](n2cnc3c(N[C@@H]4CCOC4)nc(Cl)nc32)[C@@H](F)[C@@H]1O	< 100
O=P(O)(O)CP(=O)(O)OC[C@H]1O[C@@H](n2cnc3c(NCc4ccccc4)nc(N4CCCC4)nc32)[C@H](O)[C@@H]1O	< 100
CN(Cc1ccccc1)c1nc(Cl)nc2c1cnn2[C@@H]1O[C@H](COP(=O)(O)CP(=O)(O)O)[C@@H](O)[C@H]1O	< 100
O=P(O)(O)CP(=O)(O)OC[C@H]1O[C@@H](n2cnc3c(NC4CCCC4)nc(CN4CCCCC4)nc32)[C@@H](F)[C@@H]1O	100 to 1000
C[C@H](Nc1nc(Cl)nc2c1ccn2[C@@H]1O[C@H](COP(=O)(O)CP(=O)(O)O)[C@@H](O)[C@H]1O)c1ccc(F)cc1	< 100
C[C@H](Nc1nc(Cl)nc2c1ncn2[C@@H]1O[C@H](COP(=O)(O)CP(=O)(O)O)[C@@H](O)[C@@H]1F)c1ccccc1	< 100
Cc1nc(NCc2ccccc2)c2ncn([C@@H]3O[C@H](COP(=O)(O)CP(=O)(O)O)[C@@H](O)[C@@H]3F)c2n1	< 100
CN(c1nc(Cl)nc2c1ncn2[C@@H]1O[C@H](COP(=O)(O)CP(=O)(O)O)[C@@H](O)[C@@H]1F)C1CCCC1	< 100
C[C@@H](Nc1nc(Cl)nc2c1ccn2[C@@H]1O[C@H](COP(=O)(O)CP(=O)(O)O)[C@@H](O)[C@@H]1F)c1ccccc1	< 100
C[C@H](Nc1nc(Cl)nc2c1cnn2[C@@H]1O[C@H](COP(=O)(O)CP(=O)(O)O)[C@@H](O)[C@@H]1F)c1ccccc1F	< 100
C[C@H](Nc1nc(Cl)nc2c1cnn2[C@@H]1O[C@H](COP(=O)(O)CP(=O)(O)O)[C@@H](O)[C@@H]1F)c1cccc(F)c1	< 100
O=P(O)(O)CP(=O)(O)OC[C@H]1O[C@@H](n2cnc3c(NCc4ccccc4)nc(C#Cc4ccccc4)nc32)[C@@H](F)[C@@H]1O	< 100

Structure (SMILES)	IC50 [nM]
C[C@@H](Nc1nc(Cl)nc2c1ncn2[C@@H]1O[C@H](COP(=O)(O)CP(=O)(O)O)[C@@H](O)[C@@H]1F)c1ccccc1	< 100
O=P(O)(O)CP(=O)(O)OC[C@H]1O[C@@H](n2ncc3c(NCc4ccccc4)nc(Cl)nc32)[C@@H](F)[C@@H]1O	< 100
C[C@@H](Nc1cc(Cl)nc2c1cnn2[C@@H]1O[C@H](COP(=O)(O)CP(=O)(O)O)[C@@H](O)[C@@H]1F)c1ccccc1	< 100
O=P(O)(O)CP(=O)(O)OC[C@H]1O[C@@H](n2ncc3c(NC4CCCC4)cc(Cl)nc32)[C@H](O)[C@@H]1O	< 100
O=P(O)(O)CP(=O)(O)OC[C@H]1O[C@@H](n2cnc3c(NCc4ccncc4)nc(Cl)nc32)[C@@H](F)[C@@H]1O	< 100
CC(Cn1cnc2c(NCc3ccccc3)ncnc21)OP(=O)(O)CP(=O)(O)O (stereo not shown)	> 1000
Nc1ncnc2c1ncn2[C@@H]1O[C@H](COP(=O)(O)CP(=O)(O)O)[C@@H](O)[C@H]1F	> 1000
O=P(O)(O)CP(=O)(O)OC[C@H]1O[C@@H](n2cnc3c(N4CCCC4)nc(Cl)nc32)[C@@H](F)[C@@H]1O	< 100
CC(COP(=O)(O)CP(=O)(O)O)n1cnc2c(NCc3ccccc3)ncnc21 (stereo not shown)	> 1000
O=P(O)(O)CP(=O)(O)OC[C@H]1O[C@@H](n2ncc3c(N[C@H]4CCOC4)nc(Cl)nc32)[C@H](O)[C@@H]1O	< 100
O=P(O)(O)CP(=O)(O)OC[C@H]1O[C@@H](n2cnc3c(NC4CCCC4)cc(Cl)nc32)[C@H](O)[C@@H]1O	< 100
CN(c1nc(Cl)nc2c1ncn2[C@@H]1O[C@H](COP(=O)(CP(=O)(Oc2ccc(Cl)c(Cl)c2)Oc2ccc(Cl)c(Cl)c2)Oc2ccc(Cl)c(Cl)c2)[C@@H](O)[C@H]1O)C1CCCC1 (stereo partly shown)	> 1000
C[C@@H](Nc1nc(Cl)nc2c1cnn2[C@@H]1O[C@H](COP(=O)(O)CP(=O)(O)O)[C@@H](O)[C@@H]1F)c1ccccc1	< 100
C[C@H](Nc1nc(Cl)nc2c1ccn2[C@@H]1O[C@H](COP(=O)(O)CP(=O)(O)O)[C@@H](O)[C@@H]1F)c1ccccc1F	< 100
CN(Cc1ccccc1Cl)c1nc(Cl)nc2c1ncn2[C@@H]1O[C@H](COP(=O)(O)CP(=O)(O)O)[C@@H](O)[C@@H]1F	< 100
C[C@H](Nc1nc(Cl)nc2c1cnn2[C@@H]1O[C@H](COP(=O)(O)CP(=O)(O)O)[C@@H](O)[C@H]1O)c1cccc(F)c1	< 100
CN(Cc1ccccc1)c1nc(Cl)nc2c1ncn2[C@@H]1O[C@H](COP(=O)(O)CP(=O)(O)O)[C@@H](O)[C@@H]1F	< 100

The remaining lines, values ahead:

IC50 [nM]	Structure (SMILES)
< 100	C[C@H](Nc1nc(Cl)nc2c1cnn2[C@@H]1O[C@H](COP(=O)(O)CP(=O)(O)O)[C@@H](O)[C@H]1O)c1ccc(F)cc1
< 100	C[C@H](Nc1nc(Cl)nc2c1ccn2[C@@H]1O[C@H](COP(=O)(O)CP(=O)(O)O)[C@@H](O)[C@H]1O)c1cccc(F)c1
< 100	Cc1ccc(CNc2ncnc3c2ncn3[C@@H]2O[C@H](COP(=O)(O)CP(=O)(O)O)[C@@H](O)[C@H]2O)cc1
< 100	O=P(O)(O)CP(=O)(O)OC[C@H]1O[C@@H](n2cnc3c(N4CCOCC4)nc(Cl)nc32)[C@@H](F)[C@@H]1O
< 100	CNc1nc(NCc2ccccc2)c2ncn([C@@H]3O[C@H](COP(=O)(O)CP(=O)(O)O)[C@@H](O)[C@H]3O)c2n1
< 100	C[C@@H](Nc1nc(Cl)nc2c1cnn2[C@@H]1O[C@H](COP(=O)(O)CP(=O)(O)O)[C@@H](O)[C@H]1O)c1ccccc1
< 100	O=P(O)(O)CP(=O)(O)OC[C@H]1O[C@@H](n2cnc3c(NCc4ccccc4)nc(C(F)(F)F)nc32)[C@@H](F)[C@@H]1O
< 100	O=P(O)(O)CP(=O)(O)OC[C@H]1O[C@@H](n2cnc3c(NCc4ccccc4)nc(Cc4ccccc4)nc32)[C@@H](F)[C@@H]1O
< 100	O=P(O)(O)CP(=O)(O)OC[C@H]1O[C@@H](n2cnc3c(NCc4ccc(F)cc4)nc(Cl)nc32)[C@@H](F)[C@@H]1O
< 100	COc1nc(NCc2ccccc2)c2ncn([C@@H]3O[C@H](COP(=O)(O)CP(=O)(O)O)[C@@H](O)[C@H]3O)c2n1
< 100	O=P(O)(O)CP(=O)(O)OC[C@H]1O[C@@H](n2cnc3c(NCc4ccc(Cl)cc4)nc(Cl)nc32)[C@@H](F)[C@@H]1O
< 100	C[C@@H](Nc1nc(Cl)nc2c1ccn2[C@@H]1O[C@H](COP(=O)(O)CP(=O)(O)O)[C@@H](O)[C@@H]1F)c1ccccc1F
< 100	O=P(O)(O)CP(=O)(O)OC[C@H]1O[C@@H](n2cnc3c(NCc4ccccc4)nc(N4CCCCC4)nc32)[C@H](O)[C@@H]1O
< 100	CN(c1nc(Cl)nc2c1ncn2[C@@H]1O[C@H](COP(=O)(O)CP(=O)(O)O)[C@@H](O)[C@H]1O)C1CCCC1
< 100	CN(c1nc(Cl)cc2c1ncn2[C@@H]1O[C@H](COP(=O)(O)CP(=O)(O)O)[C@@H](O)[C@@H]1F)C1CCCC1
< 100	O=P(O)(O)CP(=O)(O)OC[C@H]1O[C@@H](n2ncc3c(NC4CCCC4)cc(Cl)nc32)[C@@H](F)[C@@H]1O
< 100	O=P(O)(O)CP(=O)(O)OC[C@H]1O[C@@H](n2cnc3c(NC4CCCC4)nc(Cl)nc32)[C@H](O)[C@@H]1O
